Values joined by “and” are separate entries in the source; they are usually repeats but may differ in a detail not shown here. Equal values may be shown once.
Legend:
[1] = target: T1, ternary complex CRBN/PROTAC/METTL3–14 (Homo sapiens, UniProt Q86U44+Q96SW2); assay: FRET-based ternary complex formation assay (TCFA); assay type: binding; conditions: for TCFA amplitude (mean ± SEM): Hook curve amplitude, fraction of the maximum of compound 16; for ECmax (nM) ± SD: PROTAC concentration at the maximum of the signal in the TCFA; for ECmax: TCFA, peak of the Hook curve
T1 construct: methyltransferase domains (MTD) of METTL3 (residues 354–580); His6 (N, cleaved yes); made in house; host or cells: METTL3-MTD/METTL14-MTD: baculovirus/Sf9; CRBN-TBD: E. coli Rosetta (DE3), co-expressed with BirA
T1 sequence (Q86U44 354-580): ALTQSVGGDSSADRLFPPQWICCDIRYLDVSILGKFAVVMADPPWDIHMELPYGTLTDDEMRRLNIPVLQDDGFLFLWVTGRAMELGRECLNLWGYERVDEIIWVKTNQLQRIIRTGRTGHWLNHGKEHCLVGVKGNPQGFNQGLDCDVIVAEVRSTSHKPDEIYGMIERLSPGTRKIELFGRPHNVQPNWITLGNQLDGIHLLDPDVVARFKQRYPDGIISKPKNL
T1 sequence (Q9HCE5 107-395 partner limits assumed): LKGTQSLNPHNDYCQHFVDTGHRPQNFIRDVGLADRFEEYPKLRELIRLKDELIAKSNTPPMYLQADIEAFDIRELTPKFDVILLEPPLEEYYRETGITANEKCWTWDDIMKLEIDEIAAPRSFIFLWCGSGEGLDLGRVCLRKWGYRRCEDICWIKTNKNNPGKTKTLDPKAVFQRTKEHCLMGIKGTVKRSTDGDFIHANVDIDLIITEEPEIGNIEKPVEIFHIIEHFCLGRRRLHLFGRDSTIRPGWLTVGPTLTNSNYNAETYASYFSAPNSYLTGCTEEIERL
T1 sequence (Q96SW2 318-442): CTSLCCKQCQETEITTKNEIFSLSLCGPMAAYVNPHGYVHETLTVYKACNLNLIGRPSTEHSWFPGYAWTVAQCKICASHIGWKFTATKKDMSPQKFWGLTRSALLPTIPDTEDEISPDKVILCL
Procedure: For protein expression, suspension cultures of Sf9 cells in […] medium (Thermo Fisher) were infected at a density of 2 × 10^6 mL^–1. […] The complex was further purified by size exclusion chromatography using a Superdex 200 Increase 10/300 GL column (Cytiva) in 20 mM Tris-Cl, pH 8.0, and 200 mM KCl. The complex was aliquoted and flash-frozen in liquid nitrogen and stored at −80 °C until further use.
Ternary complex formation between the PROTACs, METTL3, and CRBN was quantified by a homogeneous time-resolved fluorescence (HTRF)-based enzyme assay. […] Curves of titrations with the PROTACs were plotted in GraphPad Prism 9.5.1 and fitted with a Gaussian function, if appropriate. […] CRBN^TBD-Avi(biotin) was used at a final concentration of 10 nM. […] Anti-GST Eu^3+-labeled antibody (Cisbio, 61GSTKLB) was used at a final concentration of 0.8 nM. The final reaction volume was 20 μL in 50 mM HEPES (pH 7.5), 150 mM NaCl, 0.1% BSA, 100 mM KF. […] The ratio of the emissions [drawing 1] was considered for further analysis. […] The concentrations resulting in the maximum signal (ECmax) and the amplitudes of the Hook curves were determined from the parameters of the Gaussian fit (if appropriate) or as the coordinates of the data-point with the highest TR-FRET signal.
For the ternary complex formation assay (TCFA), one of the protein partners must have a GST-tag and the other a biotin-tag.

[2] = Cell viability assay (CellTiter-Glo) on MOLM-13; assay type: cell-based; conditions: human, MOLM-13 cells, average of two biological replicates; for viability at 72 h, […]: 2.5 µM
Procedure: (§1) MOLM-13, NOMO-1, THP-1, Kasumi-1, PC3, and DU145 cell lines were obtained from DSMZ-German Collection of Microorganisms and Cell Cultures GmbH. Cells were cultured in RPMI 1640 medium (11875093, Thermo Fisher Scientific) containing 10% FBS (16140071, Thermo Fisher Scientific) and 1% penicillin-streptomycin (15140122, Thermo Fisher Scientific) in 5% CO2 at 37 °C in a humidified incubator, with maintained cell densities at 0.5–1 × 10^6 cells/mL. All cell lines were tested negative for mycoplasma contamination (PCR-based assay by Microsynth, Switzerland).
Cell viability was determined using a CellTiter-Glo luminescent cell viability assay (Promega) based on the detection of ATP according to the manufacturer’s instructions. 100 μL of the reagent was added to each well and incubated for 10 min at room temperature. […] Background luminescence value was obtained from wells containing the CellTiter-Glo reagent and medium without cells. The resulting data was analyzed in GraphPad Prism 9.

METTL3-14 [3] = target: T2, METTL3-14 (Homo sapiens, UniProt Q86U44); assay: biochemical; design: with the full-length complex, the recombinant complex construct pFastBacDual-StrepII-GFP-TEV-METTL3-His-TEV-METTL14 was expressed; StrepII (N); GFP (N); TEV site (N); made in house; host or cells: baculovirus/Sf9 insect cells; conditions: inhibition of catalytic activity of METTL3-14, binary FRET assay
Excerpt: For determining the half maximal inhibitory concentration (IC50) with the full-length complex, the recombinant complex construct pFastBacDual-StrepII-GFP-TEV-METTL3-His-TEV-METTL14 was expressed using the baculovirus/Sf9 insect cell expression system and purified as described previously.[21]
The inhibitory potencies of the PROTACs for METTL3 were quantified by a homogeneous time-resolved fluorescence (HTRF)-based enzyme assay as previously described.[40]
Target sequence in this assay (Q86U44 whole entry): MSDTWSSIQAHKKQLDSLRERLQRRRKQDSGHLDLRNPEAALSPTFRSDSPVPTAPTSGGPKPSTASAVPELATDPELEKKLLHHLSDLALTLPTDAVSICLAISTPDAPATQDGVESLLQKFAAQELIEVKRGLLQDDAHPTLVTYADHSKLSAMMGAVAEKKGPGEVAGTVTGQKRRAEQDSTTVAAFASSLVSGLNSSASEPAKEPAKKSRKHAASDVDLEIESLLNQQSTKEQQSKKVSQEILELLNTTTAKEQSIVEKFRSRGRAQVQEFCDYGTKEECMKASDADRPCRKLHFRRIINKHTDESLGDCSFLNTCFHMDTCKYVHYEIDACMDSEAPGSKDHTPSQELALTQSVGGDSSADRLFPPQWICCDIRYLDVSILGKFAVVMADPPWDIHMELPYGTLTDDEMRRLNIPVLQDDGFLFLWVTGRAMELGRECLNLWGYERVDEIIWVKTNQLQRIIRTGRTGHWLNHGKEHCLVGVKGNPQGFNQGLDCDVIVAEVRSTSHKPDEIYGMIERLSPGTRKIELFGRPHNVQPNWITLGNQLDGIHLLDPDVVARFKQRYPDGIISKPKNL
Target sequence in this assay (Q9HCE5 whole entry, further chain): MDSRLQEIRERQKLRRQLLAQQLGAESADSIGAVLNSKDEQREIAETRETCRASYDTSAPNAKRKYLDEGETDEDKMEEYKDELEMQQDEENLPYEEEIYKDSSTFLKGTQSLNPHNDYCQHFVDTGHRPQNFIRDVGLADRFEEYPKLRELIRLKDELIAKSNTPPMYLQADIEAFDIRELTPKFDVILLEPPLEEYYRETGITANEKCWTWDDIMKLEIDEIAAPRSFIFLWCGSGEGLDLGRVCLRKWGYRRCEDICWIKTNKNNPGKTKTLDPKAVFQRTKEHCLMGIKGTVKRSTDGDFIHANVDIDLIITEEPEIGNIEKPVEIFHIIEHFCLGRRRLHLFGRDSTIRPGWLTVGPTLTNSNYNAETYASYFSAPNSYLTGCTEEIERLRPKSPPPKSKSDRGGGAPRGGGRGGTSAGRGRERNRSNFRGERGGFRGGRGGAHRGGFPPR

METTL14 = assay: Cellular degradation assay (Western blot), METTL14 in MOLM-13; assay type: cell-based, human; conditions: MOLM-13, 24 h, 2 μM compound
Procedure: as §1
(§2) METTL3 (and METTL14) protein degradation was monitored by Western blot. Cells were treated with the indicated concentration of PROTACs or DMSO control (0.1% (v/v)) for 24h, 37 °C with 5% CO2. Samples were then collected and lysed with RIPA buffer with added protease inhibitors (11697498001, Roche). After SDS-PAGE, proteins were transferred to a nitrocellulose membrane, blocked (with 5% milk, 0.5% BSA in TBST buffer), and incubated overnight with primary antibodies. The following antibodies were used: GAPDH (no. 2118, Cell Signaling, 1:4000), β-actin (ab8226, Abcam, 1:2000), METTL3 (ab195352, Abcam, 1:1000), and METTL14 (ab220031, Abcam, 1:1000). Membranes were scanned using an LI-COR Odyssey DLx imager after incubation with appropriate secondary antibodies (antimouse IgG IRDye 680RD (926–68072, LI-COR, 1:10000) and goat anti-Rabbit IgG IRDye 800CW (926–32211, LI-COR, 1:10000)). Densitometry was performed in Image Studio Lite software and analyzed in GraphPad Prism 9.

METTL3 = target: T3, METTL3 (Homo sapiens, UniProt Q86U44); assay: Cellular degradation assay (Western blot), METTL3 in MOLM-13; assay type: cell-based; conditions: MOLM-13, 24 h, 2 μM compound
T3 construct: METTL3–14 degradation up to 70% of the endogenous level; endogenous in cells; host or cells: MOLM-13, PC3, DU145
T3 sequence (Q86U44 2-580 limits assumed): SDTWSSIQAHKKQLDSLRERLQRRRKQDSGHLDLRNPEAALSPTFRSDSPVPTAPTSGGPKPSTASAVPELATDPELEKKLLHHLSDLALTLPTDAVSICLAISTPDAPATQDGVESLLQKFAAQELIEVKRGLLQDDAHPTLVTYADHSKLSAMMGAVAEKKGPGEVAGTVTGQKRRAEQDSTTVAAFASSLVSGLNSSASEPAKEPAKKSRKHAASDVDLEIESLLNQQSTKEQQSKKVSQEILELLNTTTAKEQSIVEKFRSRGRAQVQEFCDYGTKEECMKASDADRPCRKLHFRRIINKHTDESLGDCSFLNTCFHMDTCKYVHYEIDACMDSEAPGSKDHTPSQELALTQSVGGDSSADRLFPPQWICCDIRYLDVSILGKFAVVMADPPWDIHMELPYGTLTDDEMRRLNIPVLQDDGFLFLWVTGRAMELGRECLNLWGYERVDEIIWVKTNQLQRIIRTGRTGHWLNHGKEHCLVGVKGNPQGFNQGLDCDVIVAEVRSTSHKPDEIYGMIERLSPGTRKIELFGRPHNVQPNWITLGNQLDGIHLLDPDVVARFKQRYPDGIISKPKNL
T3 sequence (Q9HCE5 whole entry partner): as the sequence (Q9HCE5 whole entry, further chain) above
Procedure: as §1, §2

METTL3-14 [4] = target: T2, METTL3-14; assay: Cellular degradation assay (Western blot), METTL3 and/or METTL14 (METTL3–14) in MOLM-13; assay type: cell-based; design: METTL3–14 degradation up to 70% of the endogenous level; endogenous in cells; host or cells: MOLM-13, KASUMI-1, THP-1, NOMO-1; conditions: MOLM-13, 2 μM, 24 h, Western blot
Procedure: MOLM-13, NOMO-1, THP-1, Kasumi-1, PC3, and DU145 cell lines were obtained from DSMZ-German Collection of Microorganisms and Cell Cultures GmbH. […] All cell lines were tested negative for mycoplasma contamination (PCR-based assay by Microsynth, Switzerland).
METTL3 (and METTL14) protein degradation was monitored by Western blot. Cells were treated with the indicated concentration of PROTACs or DMSO control (0.1% (v/v)) for 24h, 37 °C with 5% CO2. […] After SDS-PAGE, proteins were transferred to a nitrocellulose membrane, blocked (with 5% milk, 0.5% BSA in TBST buffer), and incubated overnight with primary antibodies. […] Densitometry was performed in Image Studio Lite software and analyzed in GraphPad Prism 9.
Target sequence in this assay (Q86U44 2-580 limits assumed): as the sequence (Q86U44 2-580 limits assumed) above
Target sequence in this assay (Q9HCE5 whole entry partner): as the sequence (Q9HCE5 whole entry, further chain) above

SMILES | TCFA amplitude (mean ± SEM) [1] | ECmax (nM) ± SD [1] | viability at 72 h, 0.6 µM [2] [%] | viability at 72 h, 1.25 µM [2] [%] | viability at 72 h, […] [2] [%] | viability at 72 h, 5 µM [2] [%] | viability at 72 h, 10 µM [2] [%] | IC50 (METTL3-14 [3]) [nM] | MOLM-13 West. blot at 24h 2 μM comp conc. Degradation (%) of METTL14 (METTL14) | MOLM-13 West. blot at 24h 2 μM comp conc. Degradation (%) of METTL3 (METTL3) | degradation of METTL3 and/or METTL14 (METTL3-14 [4]) | ECmax [1] | activity / signal in the ternary complex formation assay [1]
CC1(C)CCN(Cc2cc(F)c(N3CC(=O)NC4(CCN(c5cc(NCc6cn(CCCCCCCCCCC(=O)Nc7cccc8c7CN(C7CCC(=O)NC7=O)C8=O)nn6)ncn5)CC4)C3)cc2F)CC1 (stereo not shown) [Compound 27] | 0.7 ± 0.0 | 1100 ± 330 nM | 95.2 | 88.7 | 92.6 | 95.5 | 90.9 | 610 ± 230 | / (Degradation <10% or stabilization) | 12% and 12 ± 43% | – | – | –
CC1(C)CCN(Cc2cc(F)c(N3CC(=O)NC4(CCN(c5cc(NCCN6CCN(C(=O)CCCNc7cccc8c7C(=O)N(C7CCC(=O)NC7=O)C8=O)CC6)ncn5)CC4)C3)cc2F)CC1 (stereo not shown) [Compound 29] | 1.0 ± 0.0 | 80 ± 0 nM | 93.7 | 93.5 | 93.4 | 94.5 | 87.4 | – | 51 ± 11% | 42 ± 14% | ≥ 50% | submicromolar | –
CC1(C)CCN(Cc2cc(F)c(N3CC(=O)NC4(CCN(c5cc(NCCN6CCN(C(=O)CCCCCCCNc7cccc8c7C(=O)N(C7CCC(=O)NC7=O)C8=O)CC6)ncn5)CC4)C3)cc2F)CC1 (stereo not shown) [Compound 31] | 0.9 ± 0.0 | 110 ± 40 nM | 95.4 | 88.3 | 88 | 85.2 | 80.2 | – | 55 ± 24% | 49 ± 33% | ≥ 50% | submicromolar | –
CC1(C)CCN(Cc2cc(F)c(N3CC(=O)NC4(CCN(c5cc(NCCN6CCN(c7cccc8c7C(=O)N(C7CCC(=O)NC7=O)C8=O)CC6)ncn5)CC4)C3)cc2F)CC1 (stereo not shown) [Compound 32] | – | – ^b | 106 | 106 | 103 | 91.5 | 74.6 | – | / (Degradation <10% or stabilization) | / (Degradation <10% or stabilization) | inactive | – | inactive
CN1C(=O)CCC(N2C(=O)c3cccc(NCCCCCC(=O)N4CCC(CNc5cc(N6CCC7(CC6)CN(c6cc(F)c(CN8CCC(C)(C)CC8)cc6F)CC(=O)N7)ncn5)CC4)c3C2=O)C1=O (stereo not shown) [me-24] | – | – | – | – | – | – | – | – | – | – | did not show any METTL3–14 degradation | – | –

Source: PMC10900215 (JACS Au, 2024)
